Reference: ChEMBL document CHEMBL1201862, “PubChem BioAssay data set” (2004)
Activity calls are given as the source filed them.

What was measured:
[1] = biological target: Muscarinic acetylcholine receptor M5 (Rattus norvegicus, UniProt P08911); test: Discovery of Novel Antagonists of Muscarinic Receptor M5: Counterscreen against RAT M5.; assay type: functional
[2] = biological target: Muscarinic acetylcholine receptor M5 (Homo sapiens, UniProt P08912); test: M5 muscarinic receptor antagonist potency, dose response, cell-based, CHO-K1 hM5, Fluo-4 calcium flux, ACh EC80 (AID 743110); assay type: functional
Transthyretin = Transthyretin (Homo sapiens, UniProt P02766); test: Luminescence-based cell-based high throughput dose response assay to identify activators of Transthyretin (TTR) transcription.; assay type: functional
[3] = Artemis endonuclease inhibitor potency, dose response, biochemical, fluorescence intensity (AID 720701); assay type: functional;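 further: Artemis endonuclease enzyme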
[4] = biological target: T1, Heat shock factor protein 1 (Mus musculus, UniProt P38532); test: HSF1 potentiators in luciferase reporter cells, confirmation, cell-based, NIH3T3, luminescence, dose retest (AID 435004); assay type: functional;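 further: stress induced by proteasome inhibitor MG132 added 30 min after compound; luciferase reporter driven by HSF1 response element in NIH3T3 cells; actives raise luminescence as potentiators of the MG132 stress response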
T1 sequence (P38532 whole entry): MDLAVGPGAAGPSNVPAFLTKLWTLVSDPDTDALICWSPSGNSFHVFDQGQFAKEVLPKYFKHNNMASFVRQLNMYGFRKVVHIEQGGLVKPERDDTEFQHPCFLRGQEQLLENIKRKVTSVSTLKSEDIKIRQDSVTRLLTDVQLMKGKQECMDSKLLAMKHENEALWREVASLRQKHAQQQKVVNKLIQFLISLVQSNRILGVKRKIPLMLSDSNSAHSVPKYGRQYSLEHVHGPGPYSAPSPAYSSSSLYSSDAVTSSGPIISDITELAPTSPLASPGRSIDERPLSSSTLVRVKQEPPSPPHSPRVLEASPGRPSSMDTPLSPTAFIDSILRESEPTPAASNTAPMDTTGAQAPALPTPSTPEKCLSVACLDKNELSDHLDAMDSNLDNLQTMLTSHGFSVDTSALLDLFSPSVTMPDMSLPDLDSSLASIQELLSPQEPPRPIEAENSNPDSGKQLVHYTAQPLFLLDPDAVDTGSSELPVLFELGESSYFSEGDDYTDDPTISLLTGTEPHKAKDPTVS

[5] = biological target: Heat shock protein HSP 90-alpha (Homo sapiens, UniProt P07900); assay type: functional, organism-based
[6] = Luminescence Cell-Based Dose Response HTS to Identify Inhibitors of 5'UTR Stem-Loop Driven Prion Protein mRNA Translation in H4 Neuroglioblastoma Cells. [Related pubchem assays: 1827 (Project Summary), 1813 (Primary HTS)]; assay type: functional
Streptokinase A = biological target: T2, Streptokinase A (Streptococcus pyogenes serotype M1, UniProt P10520); test: S. pyogenes streptokinase expression inhibitors, potency, dose response, plasminogen activation absorbance, OD405 (AID 1914); assay type: functional, Streptococcus pyogenes M1 GAS;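 further: secreted streptokinase activity via plasminogen activation per viability signal from cell pellet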
T2 sequence (P10520 whole entry): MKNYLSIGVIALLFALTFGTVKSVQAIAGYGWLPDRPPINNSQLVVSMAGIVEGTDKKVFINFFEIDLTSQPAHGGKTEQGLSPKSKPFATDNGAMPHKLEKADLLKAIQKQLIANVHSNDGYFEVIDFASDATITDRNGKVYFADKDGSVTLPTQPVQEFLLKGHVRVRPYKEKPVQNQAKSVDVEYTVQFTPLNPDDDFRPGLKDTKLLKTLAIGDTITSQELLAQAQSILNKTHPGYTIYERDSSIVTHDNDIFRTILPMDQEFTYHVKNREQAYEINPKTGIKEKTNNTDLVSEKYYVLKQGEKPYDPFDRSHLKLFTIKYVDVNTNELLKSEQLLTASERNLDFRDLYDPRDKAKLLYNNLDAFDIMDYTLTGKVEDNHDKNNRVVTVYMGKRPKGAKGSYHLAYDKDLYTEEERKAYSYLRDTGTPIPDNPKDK

[7] = system: Streptococcus sp. 'group A'; test: growth inhibition of control SK(-) GAS strain, dose response, counter-screen for streptokinase expression inhibitor project, luminescence, kanamycin, BacTiterGlo, confirmation (AID 1900); assay type: functional, organism-based
[8] = inhibitors of firefly luciferase expression or activity, dose response, H4 neuroglioma cells, luminescence (AID 1990); assay type: functional, cell-based
[9] = inhibitors of SNCA 5'UTR-driven reporter translation, confirmation, H4 neuroglioma cells, luminescence (AID 1988); assay type: functional, cell-based
Ephrin type-A receptor 4 = Ephrin type-A receptor 4 (Mus musculus, UniProt Q03137); test: inhibitors of EphA4 binding to KYL peptide, primary screen, biochemical, colorimetric, mouse EphA4 (AID 689); assay type: functional
Vero = Vero cell cytotoxicity, cytotoxicity control for flavivirus capping enzyme inhibitors (AID 588742); assay type: functional; settings: Chlorocebus sabaeus
Streptococcus = test: Group A Streptococcus viability loss, dose response, counter-screen for streptokinase expression inhibitor project, luminescence, BacTiterGlo (AID 1915); assay type: functional, organism-based;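 further: potency for reduction of bacterial viability or growth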
[10] = P. falciparum Dd2 growth inhibitors, dose response, SYBR Green, dry powder samples, set 9 (AID 1159568); assay type: functional, cell-based
[11] = biological target: RNA-editing ligase 1, mitochondrial (Trypanosoma brucei brucei, UniProt P86926); test: TbREL1 ligase inhibitors, dose response, biochemical, fluorescence, Trypanosoma brucei (AID 1117295); assay type: functional
[12] = biological target: Bifunctional protein GlmU (Mycobacterium tuberculosis, UniProt P9WMN3); test: Inhibitors of Mycobacterial Glucosamine-1-phosphate acetyl transferase (GlmU). Secondary screen.; design: species or system Mycobacterium tuberculosis H37Rv
[13] = biological target: T3, Histone-lysine N-methyltransferase NSD2 (Homo sapiens, UniProt O96028); assay type: biochemical
T3 sequence (O96028 whole entry): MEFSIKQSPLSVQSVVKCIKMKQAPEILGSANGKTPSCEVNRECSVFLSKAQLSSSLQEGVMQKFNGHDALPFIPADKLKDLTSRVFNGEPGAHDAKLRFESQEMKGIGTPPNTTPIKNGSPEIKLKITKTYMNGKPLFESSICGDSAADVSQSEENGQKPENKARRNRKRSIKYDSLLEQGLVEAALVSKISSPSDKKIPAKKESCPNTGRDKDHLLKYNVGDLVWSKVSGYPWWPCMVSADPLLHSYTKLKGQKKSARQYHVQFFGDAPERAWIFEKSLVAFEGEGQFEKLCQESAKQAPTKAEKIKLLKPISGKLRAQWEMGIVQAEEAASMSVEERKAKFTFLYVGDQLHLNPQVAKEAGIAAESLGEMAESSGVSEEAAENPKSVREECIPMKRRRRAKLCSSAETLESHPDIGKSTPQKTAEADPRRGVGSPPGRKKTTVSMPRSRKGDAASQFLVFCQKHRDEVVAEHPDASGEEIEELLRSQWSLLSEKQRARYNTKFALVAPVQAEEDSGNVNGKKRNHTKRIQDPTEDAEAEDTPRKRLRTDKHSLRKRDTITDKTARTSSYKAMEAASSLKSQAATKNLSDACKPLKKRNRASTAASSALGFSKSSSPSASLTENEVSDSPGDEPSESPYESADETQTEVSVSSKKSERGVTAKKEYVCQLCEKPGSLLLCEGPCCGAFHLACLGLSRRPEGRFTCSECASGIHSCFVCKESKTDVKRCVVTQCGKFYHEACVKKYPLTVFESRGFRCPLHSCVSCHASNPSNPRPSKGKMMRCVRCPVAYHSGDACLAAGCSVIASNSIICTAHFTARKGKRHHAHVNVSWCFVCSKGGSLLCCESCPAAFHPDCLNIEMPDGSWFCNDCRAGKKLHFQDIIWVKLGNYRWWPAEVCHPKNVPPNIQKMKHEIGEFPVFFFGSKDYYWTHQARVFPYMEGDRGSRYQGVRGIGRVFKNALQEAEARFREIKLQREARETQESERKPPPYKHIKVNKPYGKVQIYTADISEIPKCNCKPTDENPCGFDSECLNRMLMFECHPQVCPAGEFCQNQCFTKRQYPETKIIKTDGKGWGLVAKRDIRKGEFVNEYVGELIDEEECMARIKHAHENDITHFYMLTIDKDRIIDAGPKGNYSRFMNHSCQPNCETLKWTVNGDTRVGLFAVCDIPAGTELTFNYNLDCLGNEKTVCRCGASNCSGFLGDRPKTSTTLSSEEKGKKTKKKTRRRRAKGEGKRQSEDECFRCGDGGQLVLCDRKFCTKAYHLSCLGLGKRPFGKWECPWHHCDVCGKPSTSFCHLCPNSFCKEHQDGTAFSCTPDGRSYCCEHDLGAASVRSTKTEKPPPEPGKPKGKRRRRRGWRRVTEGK

Large T antigen = Large T antigen (Simian virus 40, UniProt P03070); assay type: functional, Betapolyomavirus macacae;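 further: Confirmatory-stage PubChem screen for compounds that inhibit SV40 T antigen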
Caspase-6 = biological target: T4, Caspase-6 (Homo sapiens, UniProt P55212); test: human caspase-6 inhibitors, dose response, biochemical, VEID-R110 fluorescence, cherry-pick (AID 720632)
T4 sequence (P55212 whole entry): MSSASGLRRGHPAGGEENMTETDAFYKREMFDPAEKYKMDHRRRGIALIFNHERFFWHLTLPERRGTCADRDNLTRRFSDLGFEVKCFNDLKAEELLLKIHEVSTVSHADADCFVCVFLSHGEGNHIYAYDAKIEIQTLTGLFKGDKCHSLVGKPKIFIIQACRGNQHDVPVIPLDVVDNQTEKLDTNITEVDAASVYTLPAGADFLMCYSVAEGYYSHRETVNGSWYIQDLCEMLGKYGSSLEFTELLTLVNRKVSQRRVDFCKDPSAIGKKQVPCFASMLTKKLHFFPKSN

[14] = biological target: G-protein coupled receptor 183 (Homo sapiens, UniProt P32249); test: SAR confirmation of small molecule antagonists of the EBI2 receptor via a luminescent beta-arrestin assa.; assay type: functional
Chain of G-protein coupled receptor 183 (P32249 whole entry): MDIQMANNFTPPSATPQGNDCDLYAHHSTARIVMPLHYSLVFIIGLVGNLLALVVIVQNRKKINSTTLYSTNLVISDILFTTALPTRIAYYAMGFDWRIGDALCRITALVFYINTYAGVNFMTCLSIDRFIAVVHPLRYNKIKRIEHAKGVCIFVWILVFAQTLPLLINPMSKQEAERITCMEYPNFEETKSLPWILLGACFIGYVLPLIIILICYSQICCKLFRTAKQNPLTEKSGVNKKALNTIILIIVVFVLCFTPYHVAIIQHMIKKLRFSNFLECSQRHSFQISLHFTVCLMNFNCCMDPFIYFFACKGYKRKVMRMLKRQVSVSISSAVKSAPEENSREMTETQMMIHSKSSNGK

Chain of Ephrin type-A receptor 4 (Q03137 whole entry): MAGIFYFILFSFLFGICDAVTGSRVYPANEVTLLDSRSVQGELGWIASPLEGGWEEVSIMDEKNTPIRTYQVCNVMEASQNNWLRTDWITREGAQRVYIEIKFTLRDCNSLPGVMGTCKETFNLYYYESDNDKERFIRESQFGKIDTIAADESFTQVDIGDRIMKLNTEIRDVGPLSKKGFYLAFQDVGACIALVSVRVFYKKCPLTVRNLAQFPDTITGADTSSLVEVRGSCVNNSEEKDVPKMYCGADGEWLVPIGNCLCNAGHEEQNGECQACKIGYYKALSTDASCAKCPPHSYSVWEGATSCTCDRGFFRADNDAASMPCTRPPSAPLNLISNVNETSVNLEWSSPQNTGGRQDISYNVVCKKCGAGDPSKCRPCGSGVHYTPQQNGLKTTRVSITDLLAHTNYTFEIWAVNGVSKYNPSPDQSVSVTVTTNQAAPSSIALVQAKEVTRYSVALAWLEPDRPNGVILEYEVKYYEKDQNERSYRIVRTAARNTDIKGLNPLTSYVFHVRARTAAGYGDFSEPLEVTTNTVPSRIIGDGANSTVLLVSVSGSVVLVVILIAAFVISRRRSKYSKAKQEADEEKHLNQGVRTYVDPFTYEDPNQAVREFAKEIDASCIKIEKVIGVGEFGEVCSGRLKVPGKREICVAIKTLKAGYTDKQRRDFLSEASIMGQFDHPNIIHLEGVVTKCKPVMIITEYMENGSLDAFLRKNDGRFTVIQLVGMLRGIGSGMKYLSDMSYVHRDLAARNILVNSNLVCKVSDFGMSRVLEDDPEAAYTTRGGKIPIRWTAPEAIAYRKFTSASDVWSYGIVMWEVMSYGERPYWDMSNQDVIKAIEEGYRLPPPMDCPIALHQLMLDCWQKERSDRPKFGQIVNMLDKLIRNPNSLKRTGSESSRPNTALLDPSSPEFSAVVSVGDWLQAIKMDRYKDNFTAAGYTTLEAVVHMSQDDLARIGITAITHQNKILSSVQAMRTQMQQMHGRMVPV
Chain of Muscarinic acetylcholine receptor M5 (Rattus norvegicus, UniProt P08911) (P08911 whole entry): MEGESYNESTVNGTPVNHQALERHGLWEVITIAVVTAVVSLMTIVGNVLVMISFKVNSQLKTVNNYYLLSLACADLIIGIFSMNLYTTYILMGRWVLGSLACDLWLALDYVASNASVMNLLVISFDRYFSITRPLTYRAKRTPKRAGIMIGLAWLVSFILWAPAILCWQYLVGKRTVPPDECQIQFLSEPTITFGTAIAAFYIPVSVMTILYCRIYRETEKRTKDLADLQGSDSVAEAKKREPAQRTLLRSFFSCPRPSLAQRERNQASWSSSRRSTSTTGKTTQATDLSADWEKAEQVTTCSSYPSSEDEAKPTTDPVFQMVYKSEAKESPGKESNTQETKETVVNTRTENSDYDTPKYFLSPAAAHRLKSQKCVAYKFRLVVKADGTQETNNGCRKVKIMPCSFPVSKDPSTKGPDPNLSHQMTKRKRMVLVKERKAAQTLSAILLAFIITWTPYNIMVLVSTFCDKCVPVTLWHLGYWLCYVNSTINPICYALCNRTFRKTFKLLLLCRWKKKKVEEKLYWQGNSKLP
Chain of Bifunctional protein GlmU (P9WMN3 whole entry): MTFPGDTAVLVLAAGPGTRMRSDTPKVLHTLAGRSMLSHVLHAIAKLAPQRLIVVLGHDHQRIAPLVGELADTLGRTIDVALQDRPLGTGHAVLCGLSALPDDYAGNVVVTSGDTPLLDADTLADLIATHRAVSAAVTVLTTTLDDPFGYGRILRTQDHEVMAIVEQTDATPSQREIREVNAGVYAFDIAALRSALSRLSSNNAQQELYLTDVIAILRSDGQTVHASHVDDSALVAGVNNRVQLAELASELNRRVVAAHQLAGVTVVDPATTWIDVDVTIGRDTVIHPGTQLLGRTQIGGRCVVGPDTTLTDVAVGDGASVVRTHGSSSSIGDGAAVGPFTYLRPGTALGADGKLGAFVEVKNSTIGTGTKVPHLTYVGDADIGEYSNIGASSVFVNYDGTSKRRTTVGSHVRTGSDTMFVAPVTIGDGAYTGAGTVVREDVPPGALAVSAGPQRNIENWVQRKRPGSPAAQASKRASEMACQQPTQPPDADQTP
Chain of Muscarinic acetylcholine receptor M5 (Homo sapiens, UniProt P08912) (P08912 whole entry): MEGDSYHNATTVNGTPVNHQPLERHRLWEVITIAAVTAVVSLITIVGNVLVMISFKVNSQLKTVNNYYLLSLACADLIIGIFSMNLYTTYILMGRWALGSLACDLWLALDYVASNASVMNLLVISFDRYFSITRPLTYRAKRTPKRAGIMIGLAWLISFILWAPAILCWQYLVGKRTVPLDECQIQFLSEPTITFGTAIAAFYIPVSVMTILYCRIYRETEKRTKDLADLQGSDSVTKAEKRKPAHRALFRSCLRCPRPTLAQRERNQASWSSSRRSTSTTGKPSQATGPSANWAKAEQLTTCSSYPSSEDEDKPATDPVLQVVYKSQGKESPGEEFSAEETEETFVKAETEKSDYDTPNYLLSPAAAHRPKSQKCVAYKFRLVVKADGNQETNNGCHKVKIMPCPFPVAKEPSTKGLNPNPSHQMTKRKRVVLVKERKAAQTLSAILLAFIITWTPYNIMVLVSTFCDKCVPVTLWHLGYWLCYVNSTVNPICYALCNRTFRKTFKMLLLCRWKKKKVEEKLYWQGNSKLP
Chain of Large T antigen (P03070 whole entry): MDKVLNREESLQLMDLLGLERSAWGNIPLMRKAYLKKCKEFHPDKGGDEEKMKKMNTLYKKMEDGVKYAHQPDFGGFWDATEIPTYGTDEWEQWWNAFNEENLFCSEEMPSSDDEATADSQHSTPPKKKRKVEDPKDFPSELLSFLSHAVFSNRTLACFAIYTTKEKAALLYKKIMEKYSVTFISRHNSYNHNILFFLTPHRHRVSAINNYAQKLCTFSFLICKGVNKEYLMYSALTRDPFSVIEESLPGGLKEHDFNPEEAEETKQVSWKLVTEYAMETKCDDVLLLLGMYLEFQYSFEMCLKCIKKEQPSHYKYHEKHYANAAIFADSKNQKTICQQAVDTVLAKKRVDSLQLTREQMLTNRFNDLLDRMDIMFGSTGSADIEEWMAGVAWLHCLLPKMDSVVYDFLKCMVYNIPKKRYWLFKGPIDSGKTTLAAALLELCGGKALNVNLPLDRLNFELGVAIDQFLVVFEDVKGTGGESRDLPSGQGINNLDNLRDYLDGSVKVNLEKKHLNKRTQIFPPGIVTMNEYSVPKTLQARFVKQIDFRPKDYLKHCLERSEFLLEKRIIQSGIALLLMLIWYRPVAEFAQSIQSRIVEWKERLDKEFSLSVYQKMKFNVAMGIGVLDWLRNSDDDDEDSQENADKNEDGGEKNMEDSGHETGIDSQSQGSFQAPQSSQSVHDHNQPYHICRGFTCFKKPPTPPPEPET
Chain of RNA-editing ligase 1, mitochondrial (P86926 whole entry): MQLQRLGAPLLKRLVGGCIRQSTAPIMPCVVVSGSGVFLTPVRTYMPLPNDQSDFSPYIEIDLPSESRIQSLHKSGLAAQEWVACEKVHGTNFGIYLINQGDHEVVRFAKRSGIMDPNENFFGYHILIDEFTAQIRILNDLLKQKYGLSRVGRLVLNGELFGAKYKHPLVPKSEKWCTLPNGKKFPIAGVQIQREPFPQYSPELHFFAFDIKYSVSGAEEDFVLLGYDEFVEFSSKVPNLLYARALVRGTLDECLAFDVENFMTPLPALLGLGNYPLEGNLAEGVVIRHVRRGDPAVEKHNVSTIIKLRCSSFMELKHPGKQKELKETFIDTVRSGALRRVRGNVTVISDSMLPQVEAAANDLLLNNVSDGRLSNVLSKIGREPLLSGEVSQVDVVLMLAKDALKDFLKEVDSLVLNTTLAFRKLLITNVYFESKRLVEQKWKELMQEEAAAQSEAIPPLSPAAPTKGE

## CCN(C(=O)c1cc(COc2cccc(C(C)=O)c2)on1)C(C)c1ccccn1 (stereo unspecified)
[1]
  IC50: 6.84 µM (active)
[2]
  IC50: 5.55 µM (active)

## Cn1ncc(Br)c1C(=O)N1CCc2ccccc21
Transthyretin
  EC50: > 167 µM (inactive)

## O=C(/C=C/c1ccccc1)c1cc(Br)ccc(=O)c1O
[3]
  IC50: 19.1 µM (active)
[4]
  EC50: 15.9 µM (active)
[5]
  AC50: 3.01 µM (active)
[6]
  EC50: > 120 µM (not active)
Streptokinase A
  EC50: > 150 µM (not active)
[7]
  EC50: 1.95 µM (active)
[8]
  EC50: 11.6 µM (active)
[9]
  EC50: > 120 µM (not active)
Ephrin type-A receptor 4
  IC50: 17.3 µM (active)
Vero
  CC50: 5.71 µM (active)
Streptococcus
  EC50: 7.42 µM (active)

## Cc1noc(C)c1S(=O)(=O)N(C)C[C@@H]1OCCCC[C@@H](C)Oc2ccc(N(C)C)cc2C(=O)N([C@@H](C)CO)C[C@H]1C
[10]
  AC50: 10.6 µM (active)

## COC(=O)C1=C(C)N(Cc2cccc(C(F)(F)F)c2)C(NCc2ccc3c(c2)OCO3)=NC1c1ccccc1C(F)(F)F (stereo unspecified)
[11]
  IC50: > 96.6 µM (inactive)

## Cc1c(Br)c(=O)oc2c(Br)c(O)c(O)cc12
[12]
  IC50: 55.4 µM (active)
[13]
  AC50: 10.3 µM (active)
Large T antigen
  IC50: 41.2 µM (active)
Caspase-6
  AC50: 19.5 µM (active)

## O=C(/C=C/c1ccc(F)cc1)N1CCN(S(=O)(=O)c2cccs2)CC1
[14]
  IC50: 0.081 µM (active)
